Legend:
[1] = target: T1, recombinant human ABHD6 (33-337) (Homo sapiens, UniProt Q9BV23); assay: Evaluation of ABHD6 enzyme inhibitory activity (arachidonic acid production from 1-arachidonoyl glycerol, RapidFire-MS); format: biochemical; settings: recombinant human GST-tagged ABHD6 (33-337), substrate 1-arachidonoyl glycerol 10 μmol/L, 1 hour, room temperature
T1 construct: recombinant human ABHD6 (33-337); GST; made in house; host or cells: E. coli
T1 sequence (Q9BV23 33-337): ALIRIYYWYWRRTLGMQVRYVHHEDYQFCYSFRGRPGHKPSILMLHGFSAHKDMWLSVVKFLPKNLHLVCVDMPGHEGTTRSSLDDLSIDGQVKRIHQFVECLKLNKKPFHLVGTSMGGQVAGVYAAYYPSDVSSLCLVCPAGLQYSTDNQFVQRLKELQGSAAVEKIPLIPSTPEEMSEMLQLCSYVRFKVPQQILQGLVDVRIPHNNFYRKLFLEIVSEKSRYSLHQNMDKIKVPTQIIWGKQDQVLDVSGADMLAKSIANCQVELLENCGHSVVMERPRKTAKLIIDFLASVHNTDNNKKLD
Experimental: The recombinant human ABHD6 (33-337) was a GST-tagged ABHD6, and one which was expressed in E. coli, then purified with a Glutathione-Sepharose 4B resin, and then concentrated was used. The enzyme reaction was carried out at room temperature using a 384-well microplate made of polypropylene, and wells to which no enzyme was added were designated as a blank group.
One hour after the start of the enzyme reaction, methanol containing, as an internal standard substance, arachidonic acid-d8 (Cayman Chemical) and 1% formic acid was added to stop enzymatic reaction. The upper part of the enzyme reaction plate was sealed with aluminum, and centrifugation was performed at 560 g for 5 minutes at room temperature. Then, arachidonic acid as an enzyme reaction product and arachidonic acid-d8 as the internal standard substance were quantified with RapidFire (registered trademark)-Mass Spectrometry system.

human ABHD6 = target: T2, human ABHD6 (Homo sapiens, UniProt Q9BV23); assay: Measurement of binding affinity for human ABHD6 (BRET, HEK293 cells expressing NanoLuc-human ABHD6 fusion protein); settings: fluorescent probe 100 nmol/L
T2 construct: expressed in transfected cells; host or cells: HEK293
T2 sequence (Q9BV23 1-337): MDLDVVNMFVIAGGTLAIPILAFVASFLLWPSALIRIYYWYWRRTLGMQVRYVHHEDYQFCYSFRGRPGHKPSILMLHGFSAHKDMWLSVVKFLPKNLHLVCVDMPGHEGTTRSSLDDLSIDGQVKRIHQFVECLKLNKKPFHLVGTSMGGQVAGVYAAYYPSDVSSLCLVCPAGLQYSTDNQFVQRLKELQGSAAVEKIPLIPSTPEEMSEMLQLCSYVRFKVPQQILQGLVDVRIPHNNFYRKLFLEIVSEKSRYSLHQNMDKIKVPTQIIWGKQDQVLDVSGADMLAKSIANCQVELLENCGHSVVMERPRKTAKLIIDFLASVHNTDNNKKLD
Experimental: The binding affinity of the test compound for human ABHD6 was measured using bioluminescence resonance energy transfer (hereinafter, abbreviated as BRET) as an index. The bioluminescence resonance energy transfer is induced by the proximity of a probe molecule and a NanoLuc-human ABHD6 fusion protein, which is caused by allowing a fluorescent probe molecule and a test compound to act in a competitive manner using HEK293 cells forcibly expressing the NanoLuc-human ABHD6 fusion protein.
The test compound and the compound described in Example 2 as a control substance were each dissolved in dimethyl sulfoxide (DMSO) to prepare a 10 mmol/L solution. The prepared 10 mmol/L solution was thawed at the time of use, serially diluted with DMSO, and subjected to an experiment.
HEK293 cells expressing a NanoLuc-human ABHD6 fusion protein were statically cultured at 37° C. in the presence of 5% CO2 using inactivated (56° C., 30 min) 9.8 vol % non-dialyzed-FBS (containing 0.5 vol % GENETICIN and 1% penicillin-streptomycin). The subculture was performed by the following method.
The culture medium was removed, and the cells were washed once with phosphate buffered saline without Ca^2+ and Mg^2+. An appropriate amount of trypsin-EDTA was added, and the cells were incubated at room temperature. After the cells were detached, a culture medium in a volume 10-fold the volume of trypsin-EDTA (0.05%) was added to stop an enzyme reaction. The cells were collected in a centrifuge tube, and centrifuged at room temperature for 3 minutes at 120 g, and the supernatant was removed. The cells were suspended in an appropriate amount of culture medium and seeded in a culture flask.
HEK293 cells expressing a NanoLuc-human ABHD6 fusion protein were prepared, and then cryopreserved so as to be 5.0×10^6 cells/mL/vial in CELLBANKER2, and the cells were subjected to an experiment. HBSS (+) containing 20 mmol/L HEPES (pH 7.3) and 0.1% BSA was prepared and used as an assay buffer. The cells were thawed and suspended in the assay buffer to prepare a cell suspension of 2×10^5 cells/mL. […] The plate was allowed to stand at 37° C. for 30 minutes in the presence of 5% CO2. Then, a probe molecule (10 mmol/L in DMSO) having a fluorophore was diluted with the assay buffer so as to have a final concentration of 100 nmol/L, and added to the assay plate in an amount of 15 μL each. Further, this was allowed to stand at 37° C. for 30 minutes in the presence of 5% CO2. Then, a Nano-Glo (registered trademark) Vivazine (trademark) substrate (Promega Corporation) was diluted with the assay buffer according to the method described in the protocol, and added to the assay plate in an amount of 10 μL each, and this was allowed to stand at room temperature for 1 hour. Thereafter, the luminescence and fluorescence intensity were measured using a GloMax (registered trademark) discover system. The ratio between the emission intensity through the 450 nm bandpass filter and the fluorescence intensity through the 600 nm longpass filter was defined as the measured value of each sample. […] The measured value of the group not containing the compound was defined as 0% inhibition. The IC50 value of the test compound was determined from the measured value at each test compound concentration.

| Structure (SMILES) | IC50 [1] | IC50 (human ABHD6) |
| --- | --- | --- |
| COc1cc(Cl)nnc1O[C@@H]1CC[C@H]2CN(C(=O)c3cc4c(s3)CCOC4)C[C@H]21 [Example 2-5, [(3aS,4R,6aR)-4-[(6-Chloro-4-methoxy-3-pyridazinyl)oxy]hexahydrocyclopenta[c]pyrrol-2(1H)-yl](6,7-dihydro-4H-thieno[3,2-c]pyran-2-yl)methanone] | 2 nM | 9 nM |
| O=C(c1cc2c(s1)CCOC2)N1CC2CCC(Oc3nnc(Cl)c4ccsc34)C2C1 (stereo not shown) [Example 2-3, {4-[(4-Chlorothieno[2,3-d]pyridazin-7-yl)oxy]hexahydrocyclopenta[c]pyrrol-2(1H)-yl}(6,7-dihydro-4H-thieno[3,2-c]pyran-2-yl)methanone] | 1 nM | 9 nM |
| O=C(c1ccc(OCCF)s1)N1C[C@@H]2CC[C@@H](Oc3ccc(Br)nn3)[C@@H]2C1 [Example 1-19, [(3aS,4R,6aR)-4-[(6-Bromo-3-pyridazinyl)oxy]hexahydrocyclopenta[c]pyrrol-2(1H)-yl][5-(2-fluoroethoxy)-2-thienyl]methanone] | < 1 nM | 10 nM |
| O=C(c1cc2c(s1)CCOC2)N1C[C@@H]2CC[C@@H](Oc3ccc(Br)nn3)[C@]2(O)C1 [Example 7, [(3aR,4R,6aS)-4-[(6-Bromo-3-pyridazinyl)oxy]-3a-hydroxyhexahydrocyclopenta[c]pyrrol-2(1H)-yl](6,7-dihydro-4H-thieno[3,2-c]pyran-2-yl)methanone] | 2 nM | 3 nM |
| Cc1ccc(C(=O)N2C[C@@H]3CC[C@@H](Oc4ccc(Br)nn4)[C@@H]3C2)s1 [Example 1-1, [(3aS,4R,6aR)-4-[(6-Bromo-3-pyridazinyl)oxy]hexahydrocyclopenta[c]pyrrol-2(1H)-yl](5-methyl-2-thienyl)methanone] | 1 nM | 11 nM |
| O=C(c1cc2nn(C3CC3)cc2s1)N1C[C@@H]2CC[C@@H](Oc3ccc(Br)nn3)[C@@H]2C1 [Example 1-4, [(3aS,4R,6aR)-4-[(6-Bromo-3-pyridazinyl)oxy]hexahydrocyclopenta[c]pyrrol-2(1H)-yl](2-cyclopropyl-2H-thieno[3,2-c]pyrazol-5-yl)methanone] | < 1 nM | 4 nM |
| O=C(c1ccc(C(F)F)s1)N1C[C@@H]2CC[C@@H](Oc3ccc(Br)nn3)[C@@H]2C1 [Example 1-7, [(3aS,4R,6aR)-4-[(6-Bromo-3-pyridazinyl)oxy]hexahydrocyclopenta[c]pyrrol-2(1H)-yl][5-(difluoromethyl)-2-thienyl]methanone] | < 1 nM | 20 nM |

The next lines start with the values.

| IC50 [1] | IC50 (human ABHD6) | Structure (SMILES) |
| --- | --- | --- |
| < 1 nM | 4 nM | Cn1ncc2cc(C(=O)N3C[C@@H]4CC[C@@H](Oc5ccc(Br)nn5)[C@@H]4C3)sc21 [Example 1-10, [(3aS,4R,6aR)-4-[(6-Bromo-3-pyridazinyl)oxy]hexahydrocyclopenta[c]pyrrol-2(1H)-yl](1-methyl-1H-thieno[2,3-c]pyrazol-5-yl)methanone] |
| < 1 nM | 5 nM | COC(=O)N1CCc2sc(C(=O)N3C[C@@H]4CC[C@@H](Oc5ccc(Br)nn5)[C@@H]4C3)cc2C1 [Example 1-13] |
| < 1 nM | 1 nM | O=C(c1cc2c(s1)CCOC2)N1C[C@@H]2CC3(CC3)[C@@H](Oc3ccc(Br)nn3)[C@@H]2C1 [Example 4, [(3aS,4S,6aR)-4-[(6-Bromo-3-pyridazinyl)oxy]tetrahydro-1H-spiro[cyclopenta[c]pyrrole-5,1′-cyclopropan]-2(3H)-yl](6,7-dihydro-4H-thieno[3,2-c]pyran-2-yl)methanone] |
| < 1 nM | 2 nM | O=C(c1cc2c(s1)CCOC2)N1C[C@@H]2C[C@H](F)[C@@H](Oc3ccc(Br)nn3)[C@@H]2C1 [Example 9, [(3aS,4S,5S,6aR)-4-[(6-Bromo-3-pyridazinyl)oxy]-5-fluorohexahydrocyclopenta[c]pyrrol-2(1H)-yl](6,7-dihydro-4H-thieno[3,2-c]pyran-2-yl)methanone] |
